The test system of data set [1] is HCMV. The data set can be described thus: Anti-HCMV cytopathogenicity test. The class given is cell-based, human cytomegalovirus. Conditions: for SI HCMV (selectivity index): CC50 (NHDF)/EC50 (HCMV); for EC50: Human betaherpesvirus 5, 144 h, HCMV-infected NHDF cells, M.O.I. 0.001-0.002, 6 days, 50% inhibition of cytopathic effect. How it is done:
(§1) Anti-HCMV (Anti-Human Cytomegalovirus) Cytopathogenicity Tests The test compounds are employed as 50 millimolar (mM) solutions in dimethyl sulphoxide (DMSO). Ganciclovir®, Foscarnet® and Cidofovir® are used as reference compounds. After addition of in each case 2 μl of the 50, 5, 0.5 and 0.05 mM DMSO stock solutions to 98 μl portions of cell culture medium in row […] for duplicate determinations, 1:2 dilutions are carried out with 50 μl portions of medium up to row 11 of the 96-well plate. The wells in rows 1 and 12 each contain 50 μl of medium. Then 150 μl portions of a suspension of 1×10^4 cells (human prepuce fibroblasts [NHDF]) are pipetted into each of the wells (row 1=cell control) and, in rows 2-12, a mixture of HCMV-infected and uninfected NHDF cells (M.O.I.=0.001-0.002), i.e. 1-2 infected cells per 1000 uninfected cells. Row 12 (without substance) serves as virus control. The final test concentrations are 250-0.0005 μM. The plates are incubated at 37° C./5% CO2 for 6 days, i.e. until all the cells are infected in the virus controls (100% cytopathogenic effect [CPE]). The wells are then fixed and stained by adding a mixture of formalin and Giemsa's dye (30 minutes), washed with double-distilled water and dried in a drying oven at 50° C. The plates are then assessed visually using an overhead microscope (Plaque Multiplier from Technomara). The following data can be acquired from the test plates: • CC50 (NHDF)=substance concentration in μM at which no visible cytostatic effects on the cells are evident by comparison with the untreated cell control; • EC50 (HCMV)=substance concentration in μM which inhibits the CPE (cytopathic effect) by 50% compared with the untreated virus control; • SI (selectivity index)=CC50 (NHDF)/EC50 (HCMV).
(In general: Protection from cytopathic effect is a common read-out in antiviral testing.)

A short description of data set [2]: Cytostatic effect on NHDF cells in the anti-HCMV cytopathogenicity test. The class given is cell-based. Particulars: NHDF cells (human prepuce fibroblasts), 6 days incubation, visual assessment, concentration at which no visible cytostatic effects are evident. The procedure: as §1

Each structure is given as a SMILES string.

Broadly, the EC50 is the midpoint of the concentration-response curve. The CC50 is the concentration giving 50% cytotoxicity. A lower CC50 goes with harm at low concentration. Consider `COc1ccc(C(F)(F)F)cc1N1C(N2CCn3c(cc4c(C)cccc43)C2)=Nc2c(F)cccc2C1CC(=O)O` (single isomer, unassigned) [Example 2], for which, in data set [1], the “SI HCMV (selectivity index)” value came out at 233 and a half-maximal response (EC50) required 0.09 µM. For the same compound, in data set [2], the CC50 at 6 days turned out to be 21 µM.

Regarding `COc1ccc(C(F)(F)F)cc1N1C(N2CCn3c(cc4c(F)cccc43)C2)=Nc2c(F)cccc2C1CC(=O)O` (single isomer, unassigned) [Example 4], in data set [1], the “SI HCMV (selectivity index)” value worked out at 117 and the midpoint of the response, the EC50, lay at 0.12 µM. In data set [2], the CC50 at 6 days turned out to be 14 µM.

`COc1ccc(C(F)(F)F)cc1N1C(N2CCN3c4ccc(F)cc4CC3C2)=Nc2c(F)cccc2C1CC(=O)O` (single isomer, unassigned) [Example 16, {8-Fluoro-2-(8-fluoro-3,4,10,10a-tetrahydropyrazino[1,2-a]indol-2(1H)-yl)-3-[2-methoxy-5-(trifluoromethyl)phenyl]-3,4-dihydroquinazolin-4-yl}acetic acid]: in data set [1], the “SI HCMV (selectivity index)” value was determined as 1050 and the EC50 stood at 0.02 µM. Besides, in data set [2], it took 21 µM to reach half-maximal cytotoxicity (CC50 at 6 days).

For `COc1ccc(C(F)(F)F)cc1N1C(N2CCN3c4cccc(C)c4CC3C2)=Nc2c(F)cccc2C1CC(=O)O` (stereo not drawn) [Example 9, [8-Fluoro-3-[2-methoxy-5-(trifluoromethyl)phenyl]-2-(9-methyl-3,4,10,10a-tetra-hydropyrazino[1,2-a]indol-2(1H)-yl)-3,4-dihydroquinazolin-4-yl]acetic acid], in data set [1], the “SI HCMV (selectivity index)” value is 600 and the midpoint of the response, the EC50, lay at 0.04 µM. Moreover, in data set [2], it took 24 µM to reach half-maximal cytotoxicity (CC50 at 6 days).

The values above are taken from US8343981B2, “Heterocyclyl-substituted dihydroquinazolines and their use as antiviral agents” (AiCuris GmbH & Co. KG, priority 2003, dated 2013).
